According to patent US4532343A, “Aromatic retinoic acid analogues” (SRI International, priority 1982, dated 1985):

Legend:
[1] = test system: Hamster Tracheal Organ Culture (keratinization); test: tracheal organ culture assay (reversal of keratinization in hamster tracheal organ culture); format: cell-based; conditions: for Reversal of Keratinization in Hamster Tracheal Organ Culture, Active/Total Cultures: active = neither keratin nor keratohyaline granules seen, or keratohyaline granules alone absent; for Reversal of Keratinization in Hamster Tracheal Organ Culture, Active/Total Cultures (%): percent of active cultures
Protocol: (§1) The ODC assay measures a compound's ability to prevent the induction of ODC. The tracheal organ culture assay measures a compound's ability to reverse keratinization.
The tracheal organ culture assay is carried out as follows. Tracheas are taken from hamsters that are in very early stages of vitamin A deficiency and placed in organ culture. At the time of culture, the animals are still gaining weight; the tracheal epithelium is generally low columnar or cuboidal, with only occasional patches of squamous metaplasia. Each trachea is opened from the larynx to the carina along the membranous dorsal wall and cultured in a serum-free medium (CMRL-1066; with crystalline bovine insulin, 0.1 μg/ml; hydrocortisone hemisuccinate, 0.1 μg/ml; glutamine, 2 mM; penicillin, 100 units/ml; and streptomycin,100 μg/ml, added). Cultures are gassed with 50% oxygen, 45% nitrogen, and 5% CO2. The culture dishes are rocked at 35.5-36.0 degrees to allow the tracheas contact with both gas and medium. All tracheas are grown in medium containing no retinoid for the first 3 days. At the end of 3 days, some tracheas are harvested; almost all of these tracheas have significant squamous metaplasia, and approximately 60% have keratinized lesions. The remaining tracheas are then divided into different groups which are treated with either: (1) retinoid dissolved in dimethylsulfoxide (final concentration of DMSO in culture medium is never greater than 0.1%) or (2) an equivalent amount of DMSO alone. Culture medium is changed three times a week, and all of the remaining tracheas are harvested at the end of 10 days in culture. Tracheas are fixed in 10% buffered formalin and embedded in paraffin. Cross sections of five micrometers are made through the mid-portion, stained with hematoxylin and eosin, and then scored with a microscope for the presence of keratin and keratohyaline granules, both of which are found in approximately 90% of control cultures that received no retinoid for the entire 10 day culture period.

[2] = test system: Ornithine Decarboxylase; test: ornithine decarboxylase (ODC) assay: inhibition of induction of ODC by 12-O-tetradecanoylphorbol-13-acetate in mouse skin; format: in vivo, mouse (female Charles River CD-1); conditions: topical, 1 hour before TPA (17 nmol)
Protocol: as §1
The ODC assay is carried out as follows. Female Charles River CD-1 mice from Charles River Breeding Laboratories, Wilmington, Massachusetts, are used (age 7 to 9 weeks). The dorsal hair of the mice is shaved 1 to 2 days before testing, and only mice showing no hair regrowth are used. A single dose of 12-O-tetradecanoylphorbol-13-acetate (TPA) (10.5 μg, 17 nmol) in 0.2 mL of acetone is applied topically to the back of each mouse. The test compound, at one of three dose levels (1.7, 17 and 170 nmol), dissolved in 0.2 mL of acetone is applied 1 hour before the TPA treatment to the test groups; the control group is treated with acetone alone. The mice are killed by cervical dislocation five hours after TPA treatment. Determinations are done in triplicate.
The epidermis is obtained from the sacrificed animals. To obtain sufficient material, the dorsal skins from 2 to 3 mice in each treatment group are pooled. The depilatory agent Nudit® (Helena Rubinstein, New York) is applied to the shaved area of the skin; after 5 minutes, it is washed off thoroughly with cold tap water. Then the skin is excised and plunged immediately into ice-cold water; it is then placed in a 55° C. water bath for 30 seconds and reimmersed in ice-cold water for at least another 30 seconds. The skin is placed epidermis side up on a cold plate, and the epidermis is scraped off with a razor blade. The pooled epidermal sheets are homogenized (Polytron PT-10 homogenizer) at 0° to 4° C. for 15-20 seconds in 50 mM sodium phosphate and 0.1 mM ethylenediaminetetraacetic acid (EDTA), at a volume of 1 mL/skin.
The supernatant fraction remaining after centrifugation of the homogenate at 10,000× g for 30 seconds at 0° C. is used for the enzyme assay. Enzyme activity is determined using the microassay for ODC as described by Verma and Boutwell to measure the release of ^14 CO2 from DL-[1-^14 C]-ornithine (58 mCi/mmol) after incubation with the 10,000× g supernatant. The incubations are carried out by decanting, with a Pasteur pipette, 100 μL of the supernatant containing 100 to 120 μg of protein into two or three 15-mL Corex tubes in a shaking water bath at 37° C. The assay mixture in the tubes consists of 50 μL of 100 mM sodium phosphate buffer (pH 7.2), 10 μL of 4 mM pyridoxal phosphate, 40 μL of 25 mM dithiothreitol, and 1 μL of 0.1 M EDTA. The center wells in the tubes are filled with 200 μL of a 2:1 solution (v/v) of ethanolamine:2-methoxyethanol. The reaction is started by adding 50 μL of substrate (0.5 μCi of DL-[1-^14 C]-ornithine in 2 mM cold ornithine) at 1-minute intervals by injection to each of the stoppered tubes. Incubations are routinely carried out at 37° C. for 30 to 60 minutes. The reaction is stopped by addition of 0.5 ml of 2 M citric acid, and incubation is continued for an additional hour without heating to ensure complete absorption of ^14 CO2.
Radioactivity is measured using a toluene-based scintillant (4 g of PPO and 50 mg of POPOP/L of toluene) in a Beckman LS-250 liquid scintillation counter. Enzyme activity is determined in triplicate and expressed as nanomoles of CO2 released in 30 minutes per milligram of protein. Enzyme activity is linear for the protein concentration used. The protein concentrations of the epidermal extracts are determined by the Lowry procedure, using bovine serum albumin as the standard.

| SMILES | Reversal of Keratinization in Hamster Tracheal Organ Culture, Active/Total Cultures ([1]; Conc 10^-8 M) | Reversal of Keratinization in Hamster Tracheal Organ Culture, Active/Total Cultures (%) ([1]; Conc 10^-8 M) | Reversal of Keratinization in Hamster Tracheal Organ Culture, Active/Total Cultures ([1]; Conc 10^-9 M) | Reversal of Keratinization in Hamster Tracheal Organ Culture, Active/Total Cultures (%) ([1]; Conc 10^-9 M) | Reversal of Keratinization in Hamster Tracheal Organ Culture, Active/Total Cultures ([1]; Conc 10^-10 M) | Reversal of Keratinization in Hamster Tracheal Organ Culture, Active/Total Cultures (%) ([1]; Conc 10^-10 M) | Inhibition of Induction of Ornithine Decarboxylase by 12-O-Tetradecanoylphorbol-13-acetate in Mouse Skin, % Inhibition of Control ([2]; Dose 1.7 nmol) [%] | Inhibition of Induction of Ornithine Decarboxylase by 12-O-Tetradecanoylphorbol-13-acetate in Mouse Skin, % Inhibition of Control ([2]; Dose 17 nmol) [%] |
| --- | --- | --- | --- | --- | --- | --- | --- | --- |
| CCOC(=O)c1ccc(/C=C(C)/C=C/C2=C(C)CCCC2(C)C)c(F)c1 [Example 5, (E)-1-(4-Carbethoxy-2-fluorophenyl)-2-methyl-4-(2,6,6-trimethyl-1-cyclohexen-1-yl)-1,3-butadiene] | 6/6 | 100 | 6/7 | 86 | 4/7 | 56 | 8 | 46 |
| CCOC(=O)c1ccc(/C=C(C)/C=C/C2=C(C)CCCC2(C)C)c(OC)c1 [Example 3, (E)-1-(4-carbethoxy-2-methoxyphenyl)-2-methyl-4-(2,6,6-trimethyl-1-cyclohexen-1-yl)-1,3-butadiene] | 7/7 | 100 | 5/7 | 71 | 4/7 | 57 | 21 | 39 |
| CC1=C(/C=C/C(C)=C(\F)c2ccc(C(=O)O)cc2)C(C)(C)CCC1 [Example 2, (1Z,3E)-1-(4-Carboxyphenyl)-1-fluoro-2-methyl-4-(2,6,6-trimethyl-1-cyclohexen-1-yl)-1,3-butadiene] | 13/13 | 100 | 12/13 | 92 | 5/13 | 38 | 70 | 80 |
| CC1=C(/C=C/C(C)=C/c2ccc(C(=O)O)cc2F)C(C)(C)CCC1 [Example 6, (E)-1-(4-Carboxy-2-fluorophenyl)-2-methyl-4-(2,6,6-trimethyl-1-cyclohexen-1-yl)-1,3-butadiene] | 6/6 | 100 | 12/12 | 100 | 3/11 | 27 | 37 | 78 |
| CCOC(=O)c1ccc(/C(F)=C(C)/C=C/C2=C(C)CCCC2(C)C)cc1 [Example 1, (1Z,3E)-1-(4-carbethoxyphenyl)-1-fluoro-2-methyl-4-(2,6,6-trimethyl-1-cyclohexen-1-yl)-1,3-butadiene] | 11/12 | 92 | 10/12 | 83 | 6/13 | 46 | 56 | 82 |
